The results in this text go back to patent US11390631B1, “Benzodiazepine derivatives as RSV inhibitors” (priority 2015, dated 2022).

pEC50: −log10 of the molar value.

The assay relates to Human RSV-A (“Long” strain). Description: RSV-A assay: inhibition of cytopathic effect in Hep-2 cells, ATPlite readout. To be noted: human respiratory syncytial virus, HEp-2, 120 h, read-out: Human RSV-A (“Long” strain) EC50. The class given is cell-based, Human respiratory syncytial virus (HRSV). The source says: Hep-2 cells, (originally derived from tumors grown in irradiated-cortisonised weanling rats that had been injected with epidermoid carcinoma tissue from a person's larynx, but later found to be indistinguishable from HeLa cells by PCR DNA analysis), were used for the culturing of genotype A, “Long” strain RSV. Flasks were inoculated with RSV and viral stocks were collected once cytopathic effect (CPE) was greater than 90%. Viral stocks in 25% sucrose media were snap frozen using liquid nitrogen to increase viral stability. Viral stock titers were quantified by tissue culture infectious dose 50% (TCID50) using 8,000 cells per well and 3-fold viral dilutions across a 96-well plate, cultured for 4 days. Viral stock titers were also quantified by a plaque forming unit assay, as described elsewhere.
Following extensive parameter testing, the final assay is run as follows: Hep-2 cells are seeded into the inner 60 wells of a 96-well plate at 8,000 cells per well in a volume of 50 μL using Growth Media (DMEM without phenol red, 1% L-Glut, 1% Penn/Strep, 1% nonessential amino acids, 10% heat-inactivated FBS). 2-fold serial dilutions of control and test compounds are added to the wells in duplicate in a total volume of 25 μL. Viral stock is then added to the wells at a multiplicity of infection (MOI) of 0.1 in a volume of 25 μL, bringing the total volume of each well to 100 μL. The MOI is calculated using the PFU/mL, or TCID50 if unavailable. Each 96-well plate has a control column of 6 wells with cells and virus but no compound (negative control, max CPE), a column with cells but no compound or virus (positive control, minimum CPE), and a column with no cells or virus or compound (background plate/reagent control). The control wells with cells but no virus are given an additional 25 uL of growth media containing an equal quantity of sucrose as those wells receiving the viral stock in order to keep consistent in media and volume conditions. The outer wells of the plate are filled with 125 μL of moat media (DMEM, 1% Penn/Strep) to act as a thermal and evaporative moat around the test wells. Following a 5-day incubation period, the plates are read using ATPlite (50 uL added per well), which quantifies the amount of ATP (a measure of cell health) present in each well. Assay plates are read using the Envision luminometer. In parallel, cytotoxicity is examined on an additional 96-well plate treated in an identical manner, but substituting the 25 μL of viral stock for 25 μL of growth media. […] EC50 ranges are as follows: A<0.4 μM; B 0.4-0.8 μM; C>0.8 μM and CC50 ranges are as follows: A>50 μM; B 10-50 μM; C<10 μM.
On to `O=C1Nc2ccccc2C(c2ccccc2)=NC1Nc1nnc(-c2ccc(OC3CCOCC3)cc2)o1` (centres unmarked) [Example 220], for which the pEC50 was below 6.10.
With `O=C1Nc2ccccc2C(c2ccccc2)=NC1Nc1nnc(C2CCNC2)o1` (centres unmarked) [Example 221] the figure was below 6.10; with `O=C1Nc2ccccc2C(c2ccccc2)=NC1Nc1nnc(C2CC3(CCNCC3)C2)o1` (centres unmarked) [Example 222], below 6.10.
As for `CC1(c2nnc(NC3N=C(c4ccccc4)c4ccccc4NC3=O)o2)CCNC1` (centres unmarked) [Example 223], the figure is below 6.10; as for `O=C1Nc2ccccc2C(c2ccccc2)=NC1Nc1nnc(-c2ccc(-n3cncn3)nc2)o1` (centres unmarked) [Example 225], below 6.10.
As for `O=C1Nc2ccccc2C(c2ccccc2)=NC1Nc1nnc(-c2ccccc2-c2ccncc2)o1` (centres unmarked) [Example 226], the figure is below 6.10.
Turning to `O=C1Nc2ccccc2C(c2ccccc2)=NC1Nc1nnc([C@@H]2CCCN2C2CCNCC2)o1` (some centres unmarked) [Example 227], the pEC50 was below 6.10.
With `CN1CCC(N2CCC[C@H]2c2nnc(NC3N=C(c4ccccc4)c4ccccc4NC3=O)o2)CC1` (some centres unmarked) [Example 228] the figure was below 6.10; with `COCCOc1ccccc1-c1nnc(NC2N=C(c3ccccc3)c3ccccc3NC2=O)o1` (centres unmarked) [Example 229], below 6.10.
With `CC1(Nc2nnc(-c3ccc(F)cc3)o2)N=C(c2ccccc2)c2ccccc2NC1=O` (centres unmarked) [Example 230] the figure was below 6.10; with `O=C1Nc2ccccc2C(c2ccccc2)=NC1Nc1nnc(-c2ccc(-n3ccnc3)cc2)o1` (centres unmarked) [Example 231], above 6.40.
As for `O=C1Nc2ccccc2C(c2ccccc2)=NC1Nc1nnc(-c2ccc(-n3ccnc3)nc2)o1` (centres unmarked) [Example 232], the figure is below 6.10; as for `O=C1Nc2ccccc2C(c2ccccc2)=NC1Nc1nnc(-c2ccc(-n3cnnc3)cc2)o1` (centres unmarked) [Example 233], below 6.10; as for `CN(C)CCOc1ccccc1-c1nnc(NC2N=C(c3ccccc3)c3ccccc3NC2=O)o1` (centres unmarked) [Example 234], below 6.10.
As for `O=C1Nc2ccccc2C(c2ccccc2)=NC1Nc1nnc(-c2ccccc2NCc2ccccn2)o1` (centres unmarked) [Example 235], the pEC50 was below 6.10.
`COCCOc1ccc(-c2nnc(NC3N=C(c4ccccc4)c4ccccc4NC3=O)o2)cc1` (centres unmarked) [Example 236]: the pEC50 is below 6.10.
With `CN1CCN(c2ncccc2-c2nnc(NC3N=C(c4ccccc4)c4ccccc4NC3=O)o2)CC1` (centres unmarked) [Example 237] the figure was below 6.10; with `CN[C@H](c1ccccc1)c1nnc(NC2N=C(c3ccccc3)c3ccccc3NC2=O)o1` (some centres unmarked) [Example 238], below 6.10.
With `O=C1Nc2ccccc2C(c2ccccc2)=NC1Nc1nnc(-c2ccccc2OC2CCOCC2)o1` (centres unmarked) [Example 239] the figure was below 6.10.
With `O=C1Nc2ccccc2C(c2ccccc2)=NC1Nc1nnc(-c2ccccc2N2CCS(=O)(=O)CC2)o1` (centres unmarked) [Example 240] the figure was below 6.10.
Regarding `O=C1Nc2ccccc2C(c2ccccc2)=NC1Nc1nnc(-c2cccnc2N2CCCCC2)o1` (centres unmarked) [Example 241], the negative-log EC50 (pEC50) was below 6.10.
With `C[C@@H]1CN(c2ccc(-c3nnc(N[C@H]4N=C(c5ccccc5)c5ccccc5NC4=O)o3)c(Cl)c2)C[C@H](C)O1` [Example 243] the figure was below 6.10; with `O=C1Nc2ccccc2C(c2ccccc2)=N[C@@H]1Nc1nnc(-c2ccc(N3C4CCC3COC4)cc2Cl)o1` [Example 244], below 6.10; with `O=C1Nc2ccccc2C(c2ccccc2)=NC1Nc1nnc(-c2cccnc2N2CCCC(F)(F)C2)o1` (centres unmarked) [Example 246], below 6.10.
With `CO[C@H]1CCN(c2ncccc2-c2nnc(NC3N=C(c4ccccc4)c4ccccc4NC3=O)o2)C1` (some centres unmarked) [Example 247] the figure was below 6.10; with `O=C1Nc2ccccc2C(c2ccccc2)=NC1Nc1nnc(-c2cccnc2N2C[C@@H]3C[C@H]2CO3)o1` (some centres unmarked) [Example 248], below 6.10; with `COC1CCN(c2ncccc2-c2nnc(NC3N=C(c4ccccc4)c4ccccc4NC3=O)o2)CC1` (centres unmarked) [Example 254], below 6.10.
For the molecule `O=C1Nc2ccccc2C(c2ccccc2)=NC1Nc1nnc(-c2cccnc2N2CCC(O)CC2)o1` (centres unmarked) [Example 255], the pEC50 is below 6.10.
For `O=C1Nc2ccccc2C(c2ccccc2)=NC1Nc1nnc(-c2cccnc2N2CCC(F)CC2)o1` (centres unmarked) [Example 256], the pEC50 was below 6.10.
As for `COC1CN(c2ncccc2-c2nnc(NC3N=C(c4ccccc4)c4ccccc4NC3=O)o2)C1` (centres unmarked) [Example 258], the figure is below 6.10; as for `O=C1Nc2ccccc2C(c2ccccc2)=NC1Nc1nnc(-c2cccnc2N2CC(F)(F)C2)o1` (centres unmarked) [Example 259], below 6.10.
With `N#CC1CCN(c2ncccc2-c2nnc(NC3N=C(c4ccccc4)c4ccccc4NC3=O)o2)CC1` (centres unmarked) [Example 260] the figure was below 6.10; with `C[C@H]1COCCN1c1ncccc1-c1nnc(NC2N=C(c3ccccc3)c3ccccc3NC2=O)o1` (some centres unmarked) [Example 261], below 6.10.
As for `C[C@@H]1CN(c2ncccc2-c2nnc(NC3N=C(c4ccccc4)c4ccccc4NC3=O)o2)CCO1` (some centres unmarked) [Example 262], the figure is below 6.10.
As to `O=C1Nc2ccccc2C(c2ccccc2)=NC1Nc1nnc(-c2cccnc2N2C[C@H]3C[C@@H]2CO3)o1` (some centres unmarked) [Example 264], the negative logarithm of the EC50 (pEC50) was below 6.10.
As for `O=C1Nc2ccccc2C(c2ccccc2)=NC1Nc1nnc(-c2cccnc2N2C3CCC2COC3)o1` (centres unmarked) [Example 265], the figure is below 6.10; as for `O=C1Nc2ccccc2C(c2ccccc2)=NC1Nc1nnc(-c2cccnc2N2CC3CCC(C2)O3)o1` (centres unmarked) [Example 266], 6.10 to 6.40; as for `O=C1Nc2ccccc2C(c2ccccc2)=NC1Nc1nnc(-c2cccnc2N2C[C@H]3COC[C@H]3C2)o1` (some centres unmarked) [Example 267], below 6.10.
As to `O=C1Nc2ccccc2C(c2ccccc2)=N[C@@H]1Nc1nnc(-c2cccnc2N2CCn3ncnc3C2)o1` [Example 270], the pEC50 is below 6.10.
With `COC1CN(c2cc(C(F)(F)F)cnc2-c2nnc(N[C@H]3N=C(c4ccccc4)c4ccccc4NC3=O)o2)C1` [Example 271] the figure was below 6.10; with `O=C1Nc2ccccc2C(c2ccccc2)=NC1Nc1nnc(-c2ccc(-n3cncn3)cc2)o1` (centres unmarked) [Example 273], 6.10 to 6.40.
Take `N#CC1CN(c2ncccc2-c2nnc(NC3N=C(c4ccccc4)c4ccccc4NC3=O)o2)C1` (centres unmarked) [Example 274]: the pEC50 is below 6.10.
In the case of `O=C1Nc2ccccc2C(c2ccccc2)=N[C@@H]1Nc1nnc(-c2ccc(C(F)(F)F)nc2N2C3CCC2COC3)o1` [Example 275], the pEC50 is below 6.10.
As for `Cc1ccc(-c2nnc(N[C@H]3N=C(c4ccccc4)c4ccccc4NC3=O)o2)c(N2CC3CCC(C2)O3)n1` [Example 279], the figure is above 6.40.
Consider `Cc1ccc(-c2nnc(N[C@H]3N=C(c4ccccc4)c4ccccc4NC3=O)o2)c(N2C3CCC2COC3)n1` [Example 280], for which the pEC50 was above 6.40.
As for `N#Cc1ccc(-c2nnc(N[C@H]3N=C(c4ccccc4)c4ccccc4NC3=O)o2)c(N2CC3CCC(C2)O3)c1` [Example 281], the figure is above 6.40.
Take `O=C1Nc2ccccc2C(c2ccccc2)=N[C@@H]1Nc1nnc(-c2ncc(C(F)(F)F)cc2-c2ccncc2)o1` [Example 282]: the pEC50 is below 6.10.
As for `O=C1Nc2ccccc2C(c2ccccc2)=NC1Nc1nnc(-c2ccccc2-n2cccn2)o1` (centres unmarked) [Example 283], the figure is below 6.10; as for `C[C@@H]1CN(c2cc(F)ccc2-c2nnc(N[C@H]3N=C(c4ccccc4)c4ccccc4NC3=O)o2)C[C@H](C)O1` [Example 284], below 6.10; as for `C[C@@H]1COCCN1c1cc(C#N)ccc1-c1nnc(N[C@H]2N=C(c3ccccc3)c3ccccc3NC2=O)o1` [Example 285], above 6.40.
As for `Cc1ccc(-c2nnc(N[C@H]3N=C(c4ccccc4)c4ccccc4NC3=O)o2)c(N2CCOC[C@H]2C)n1` [Example 286], the figure is above 6.40.
For `O=C1Nc2ccccc2C(c2ccccc2)=NC1Nc1nnc(C23CCN(CC2)CC3)o1` (centres unmarked) [Example 287], the pEC50 was below 6.10.
On to `O=C1Nc2ccccc2C(c2ccccc2)=N[C@@H]1Nc1nnc(-c2ccc(F)cc2N2CC3CCC(C2)O3)o1` [Example 288], for which the negative logarithm of the EC50 (pEC50) is 6.10 to 6.40.
As for `N#Cc1ccc(-c2nnc(N[C@H]3N=C(c4ccccc4)c4ccccc4NC3=O)o2)c(N2C3CCC2COC3)c1` [Example 289], the figure is above 6.40; as for `O=C1Nc2ccccc2C(c2ccccc2)=N[C@@H]1Nc1nnc(-c2cnc(C(F)(F)F)nc2N2CC3CCC(C2)O3)o1` [Example 290], below 6.10; as for `N#Cc1c[nH]c2cc(-c3nnc(N[C@H]4N=C(c5ccccc5)c5ccccc5NC4=O)o3)ccc12` [Example 291], below 6.10.

Broadly, the pEC50 is −log10 of the EC50, conventionally taken in molar units.
